Values joined by “and” are separate entries in the source; they are usually repeats but may differ in a detail not shown here. Equal values may be shown once. Toxic doses and inconclusive results are not listed.
Test system: P388 leukemia ip, CD2F1 mice, survival T/C
Experiment: NCI In Vivo Anticancer Drug Screen. Data for tumor model P388 Leukemia (intraperitoneal) in CD2F1 (CDF1) mice
Conditions: endpoint: median survival time, higher = longer survival
Method in brief: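 Mice carrying the transplanted tumor received test compound or vehicle. Survival was recorded in each group, and the value is the treated-group measurement divided by that of the vehicle-treated control group.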

[1] = dose: 120.0 mg/kg/injection, schedule: Q01DX005 (ip), vehicle: Klucel (hydroxypropylcellulose) (HPC)
[2] = dose: 240.0 mg/kg/injection, schedule: Q01DX005 (ip), vehicle: Klucel (hydroxypropylcellulose) (HPC)
[3] = dose: 50.0 mg/kg/injection, schedule: Q01DX005 (ip), vehicle: Klucel (hydroxypropylcellulose) (HPC)
[4] = dose: 100.0 mg/kg/injection, schedule: Q01DX005 (ip), vehicle: Klucel (hydroxypropylcellulose) (HPC)
[5] = dose: 200.0 mg/kg/injection, schedule: Q01DX005 (ip), vehicle: Klucel (hydroxypropylcellulose) (HPC)
[6] = dose: 12.5 mg/kg/injection, schedule: Q04DX003 (ip), vehicle: distilled water + Tween-80
[7] = dose: 25.0 mg/kg/injection, schedule: Q04DX003 (ip), vehicle: distilled water + Tween-80
[8] = dose: 50.0 mg/kg/injection, schedule: Q04DX003 (ip), vehicle: distilled water + Tween-80
[9] = dose: 100.0 mg/kg/injection, schedule: Q04DX003 (ip), vehicle: distilled water + Tween-80
[10] = dose: 200.0 mg/kg/injection, schedule: Q04DX003 (ip), vehicle: distilled water + Tween-80
[11] = dose: 400.0 mg/kg/injection, schedule: Q04DX003 (ip), vehicle: distilled water + Tween-80
[12] = dose: 60.0 mg/kg/injection, schedule: Q01DX005 (ip), vehicle: saline with Tween-80
[13] = dose: 120.0 mg/kg/injection, schedule: Q01DX005 (ip), vehicle: saline with Tween-80
[14] = dose: 240.0 mg/kg/injection, schedule: Q01DX005 (ip), vehicle: saline with Tween-80
[15] = dose: 50.0 mg/kg/injection, schedule: Q04DX003 (ip), vehicle: saline
[16] = dose: 100.0 mg/kg/injection, schedule: Q04DX003 (ip), vehicle: saline
[17] = dose: 200.0 mg/kg/injection, schedule: Q04DX003 (ip), vehicle: saline
[18] = dose: 12.5 mg/kg/injection, schedule: Q01DX009 (ip), vehicle: saline
[19] = dose: 25.0 mg/kg/injection, schedule: Q01DX009 (ip), vehicle: saline
[20] = dose: 50.0 mg/kg/injection, schedule: Q01DX009 (ip), vehicle: saline

## Cc1ccc(Nc2c3ccccc3nc3c2cnn3-c2ccccc2)cc1
dose: 60.0 mg/kg/injection, schedule: Q01DX005 (ip), vehicle: Klucel (hydroxypropylcellulose) (HPC)
  T/C: 91 % of control
[1]
  T/C: 90 % of control
[2]
  T/C: 87 % of control

## Cc1cccc(C(=O)/C=C2/CCCN2C)c1
dose: 100.0 mg/kg/injection, schedule: Q04DX003 (ip), vehicle: saline with Tween-80
  T/C: 110 % of control
dose: 200.0 mg/kg/injection, schedule: Q04DX003 (ip), vehicle: saline with Tween-80
  T/C: 93 % of control

## O=C(OC1C2COC(O2)C(OC(=O)c2ccccc2)C1OC(=O)c1ccccc1)c1ccccc1 (stereo not drawn)
[3]
  T/C: 104 % of control
[4]
  T/C: 101 % of control
[5]
  T/C: 104 % of control

## COc1cccc2c1C(=O)c1c(O)c3c(c(O)c1C2=O)CC(O)(C1(C)OCCO1)CC3O (stereo not drawn)
dose: 3.13 mg/kg/injection, schedule: Q04DX003 (ip), vehicle: distilled water + Tween-80
  T/C: 99 % of control
dose: 6.25 mg/kg/injection, schedule: Q04DX003 (ip), vehicle: distilled water + Tween-80
  T/C: 99 % of control
[6]
  T/C: 99 % of control
[7]
  T/C: 96 % of control
[8]
  T/C: 98 % of control
[9]
  T/C: 98 % of control
[10]
  T/C: 106 % of control
[11]
  T/C: 106 % of control

## COc1ccc2c(c1)CCC1OC(c3cccnc3)OC21 (stereo not drawn)
[12]
  T/C: 99 % of control
[13]
  T/C: 99 % of control
[14]
  T/C: 97 % of control

## CCOC1OCN(C)CC1(C)C (stereo not drawn)
[15]
  T/C: 109 % of control
dose: 100.0 mg/kg/injection, schedule: Q01DX009 (ip), vehicle: saline
  T/C: 150 % of control
[16]
  T/C: 113 % of control
[17]
  T/C: 109 % of control

## O=C1Nc2ccccc2NC(=O)C1(O)O
[3]
  T/C: 100 % of control
[4]
  T/C: 101 % of control
[5]
  T/C: 101 % of control

## [N-]=[N+]=Nc1ccnc2ccc(C3CCCCC3)cc12
[12]
  T/C: 100 % of control
[13]
  T/C: 92 % of control
[14]
  T/C: 100 % of control

## COC1=C(OC)C(=O)C(Sc2ccccc2)=C(CO)C1=O
dose: 1.56 mg/kg/injection, schedule: Q01DX005 (ip), vehicle: saline with Tween-80
  T/C: 92 % of control
dose: 3.12 mg/kg/injection, schedule: Q01DX005 (ip), vehicle: saline with Tween-80
  T/C: 87 % of control
dose: 12.5 mg/kg/injection, schedule: Q01DX005 (ip), vehicle: saline with Tween-80
  T/C: 99 % of control

## COc1ccc(CC(C#N)c2ccccc2)cc1 (stereo not drawn)
dose: 25.0 mg/kg/injection, schedule: Q04DX003 (ip), vehicle: saline
  T/C: 99 % of control
[15]
  T/C: 104 % of control
[16]
  T/C: 103 % of control
[17]
  T/C: 99 % of control

## CCOC(=O)CCCCCO
dose: 100.0 mg/kg/injection, schedule: Q01DX001 (ip), vehicle: saline with Tween-80
  T/C: 104 % of control
dose: 200.0 mg/kg/injection, schedule: Q01DX001 (ip), vehicle: saline with Tween-80
  T/C: 104 % of control
dose: 400.0 mg/kg/injection, schedule: Q01DX001 (ip), vehicle: saline with Tween-80
  T/C: 106 % of control

## COC(=O)c1cc(=O)n(Cc2ccco2)c(=Nc2ccccc2)s1
dose: 50.0 mg/kg/injection, schedule: Q01DX005 (ip), vehicle: saline with Tween-80
  T/C: 98 % of control
dose: 100.0 mg/kg/injection, schedule: Q01DX005 (ip), vehicle: saline with Tween-80
  T/C: 97 % of control
dose: 200.0 mg/kg/injection, schedule: Q01DX005 (ip), vehicle: saline with Tween-80
  T/C: 94 % of control

## CCCNC(=O)OCc1c(COC(=O)NCCC)c(-c2ccc(Cl)c(Cl)c2)n2c1CCC2
dose: 12.5 mg/kg/injection, schedule: Q01DX009 (ip), vehicle: distilled water + Tween-80
  T/C: 120 % of control
dose: 20.0 mg/kg/injection, schedule: Q01DX009 (ip), vehicle: distilled water + Tween-80
  T/C: 154 % of control
dose: 40.0 mg/kg/injection, schedule: Q01DX009 (ip), vehicle: distilled water + Tween-80
  T/C: 154 % of control and 172 % of control
dose: 50.0 mg/kg/injection, schedule: Q01DX009 (ip), vehicle: distilled water + Tween-80
  T/C: 166 % of control
dose: 80.0 mg/kg/injection, schedule: Q01DX009 (ip), vehicle: distilled water + Tween-80
  T/C: 102 % of control and 91 % of control
dose: 100.0 mg/kg/injection, schedule: Q01DX009 (ip), vehicle: distilled water + Tween-80
  T/C: 95 % of control

## CN(/N=C(C#N)/C(N)=N/N)c1ccccc1
dose: 100.0 mg/kg/injection, schedule: Q04DX002 (ip), vehicle: saline with Tween-80
  T/C: 96 % of control
dose: 200.0 mg/kg/injection, schedule: Q04DX002 (ip), vehicle: saline with Tween-80
  T/C: 96 % of control

## CCOP(=O)(OCC)C1CCCN2CCc3c([nH]c4ccccc34)C12 (stereo not drawn)
[18]
  T/C: 98 % of control
[19]
  T/C: 96 % of control
[20]
  T/C: 100 % of control and 89 % of control
dose: 200.0 mg/kg/injection, schedule: Q01DX009 (ip), vehicle: saline
  T/C: 100 % of control

## CC1(C)N[P+]2(Nc3ccccc3O2)OC1=O (stereo not drawn)
dose: 100.0 mg/kg/injection, schedule: Q04DX002 (ip), vehicle: Klucel (hydroxypropylcellulose) (HPC)
  T/C: 97 % of control
dose: 200.0 mg/kg/injection, schedule: Q04DX002 (ip), vehicle: Klucel (hydroxypropylcellulose) (HPC)
  T/C: 93 % of control
dose: 400.0 mg/kg/injection, schedule: Q04DX002 (ip), vehicle: Klucel (hydroxypropylcellulose) (HPC)
  T/C: 87 % of control

## CCn1c(=O)c2c(ncn2C)n(C)c1=O
dose: 6.25 mg/kg/injection, schedule: Q01DX009 (ip), vehicle: saline
  T/C: 100 % of control
[18]
  T/C: 101 % of control
[19]
  T/C: 100 % of control
[20]
  T/C: 100 % of control

## O=C(CC(Sc1ccccc1)c1cccc([N+](=O)[O-])c1)c1ccccc1 (stereo not drawn)
dose: 50.0 mg/kg/injection, schedule: Q01DX009 (ip), vehicle: Klucel (hydroxypropylcellulose) (HPC)
  T/C: 93 % of control
dose: 100.0 mg/kg/injection, schedule: Q01DX009 (ip), vehicle: Klucel (hydroxypropylcellulose) (HPC)
  T/C: 95 % of control

## Nc1cc2c(c[n+](CCCCCCCCCC[n+]3cc4c5ccccc5c(N)cc4c4ccccc43)c3ccccc23)c2ccccc12
dose: 0.78 mg/kg/injection, schedule: Q04DX003 (ip), vehicle: other
  T/C: 118 % of control
[6]
  T/C: 166 % of control
[7]
  T/C: 159 % of control
dose: 25.0 mg/kg/injection, schedule: Q04DX003 (ip), vehicle: other
  T/C: 160 % of control and 166 % of control
[8]
  T/C: 165 % of control
dose: 50.0 mg/kg/injection, schedule: Q04DX003 (ip), vehicle: other
  T/C: 157 % of control and 160 % of control
[9]
  T/C: 161 % of control
[10]
  T/C: 161 % of control
dose: 200.0 mg/kg/injection, schedule: Q04DX003 (ip), vehicle: other
  T/C: 169 % of control
[11]
  T/C: 175 % of control

## COc1ccc(/C=C/C(=O)OC2CC34CCNC35CC(OC5(OC)C2OC)c2ccc(OC)c(O)c24)cc1O (stereo not drawn)
dose: 12.5 mg/kg/injection, schedule: Q01DX005 (ip), vehicle: Klucel (hydroxypropylcellulose) (HPC)
  T/C: 100 % of control
dose: 25.0 mg/kg/injection, schedule: Q01DX005 (ip), vehicle: Klucel (hydroxypropylcellulose) (HPC)
  T/C: 100 % of control
[3]
  T/C: 97 % of control

## O=C(Cn1nnc(N2CCCCC2)n1)N/N=C/c1ccccc1O
dose: 30.0 mg/kg/injection, schedule: Q01DX005 (ip), vehicle: Klucel (hydroxypropylcellulose) (HPC)
  T/C: 88 % of control
[1]
  T/C: 95 % of control
[2]
  T/C: 95 % of control

## COc1cc2c(cc1OC)C(=O)Cc1ccc(OC)c(O)c1CN(C)CC2
dose: 2.25 mg/kg/injection, schedule: Q01DX009 (ip), vehicle: Klucel (hydroxypropylcellulose) (HPC)
  T/C: 111 % of control
dose: 4.5 mg/kg/injection, schedule: Q01DX009 (ip), vehicle: Klucel (hydroxypropylcellulose) (HPC)
  T/C: 108 % of control
dose: 9.0 mg/kg/injection, schedule: Q01DX009 (ip), vehicle: Klucel (hydroxypropylcellulose) (HPC)
  T/C: 118 % of control
dose: 18.0 mg/kg/injection, schedule: Q01DX009 (ip), vehicle: Klucel (hydroxypropylcellulose) (HPC)
  T/C: 108 % of control
